{"source": "paper PMC11013252", "about": "“Exploration of the Antibacterial and Anti-Inflammatory Activity of a Novel Antimicrobial Peptide Brevinin-1BW” (Molecules, 2024)", "key": {"RAW264.7": {"tested_on": "RAW264.7", "assay_type": "cell-based, mouse", "details": "24 h", "description": "Medium was prepared to contain 10% FBS (TransGen Biotech, China) and 1% penicillin-streptomycin (Biosharp, Guangzhou, China). A549, U-2OS, HePG2, HaCaT, HUVEC, and 293T cells were cultured in DMEM medium (Gibco, New York, NY, USA). A375, HCT116, Hela, and RAW264.7 cells were cultured in RPMI 1640 medium (Gibco, New York, NY, USA). The cytotoxicity of Brevinin-1BW was determined using the Cell Counting Kit-8 as follows: detached the cells from cell culture flasks with 0.25% trypsin, counted with a hemocytometer plate and then prepared into a cell suspension containing 5 × 10^3 cells/mL. Then, 90 μL of the cell suspension was inoculated into a 96-well plate and incubated at 37 °C in a 5% CO2-humidified atmosphere for 24 h. A 10 μL volume of the peptide was subsequently added to each well and co-incubated with the cells for 24 h. Then, 10 μL of CCK8 (Abbkine, Wuhan, China) was added to each well and incubated for a further 2 h. The absorbance of each well at 450 nm was measured using a multifunctional enzyme marker. […] Three replicate wells were set up for each experiment, and each experiment was repeated three times. The formula for calculating the cell viability is shown below."}, "S. aureus mature biofilm": {"tested_on": "S. aureus mature biofilm", "experiment": "Biofilm clearance, crystal violet", "assay_type": "cell-based, Staphylococcus aureus", "details": "S. aureus 24 h biofilm", "description": "Biofilm clearance of Brevinin-1BW was determined using a 96-well plate assay by first inoculating 100 µL of S. aureus bacterial suspension (5 × 10^5 CFU/mL) and incubating for 24 h at 37 °C. They were washed three times with sterile PBS. […] After 24 h of incubation, the cells were washed three times with sterile PBS. Methanol was added and fixed for 0.5 h and dried aseptically. A 1% crystal violet solution was added for 0.5 h and washed three times with sterilized deionized water. Absolute ethanol dissolved the biofilm. Absorbance was measured at 600 nm. Experiments were repeated four times independently."}, "[1]": {"tested_on": "E. hormaechei (ATCC700323)", "experiment": "microbe, parasite or virus in culture", "assay_type": "cell-based, Enterobacter hormaechei", "details": "ATCC700323, 18 h", "description": "(§1) The minimum inhibitory concentration (MIC) of the Brevinin-1BW was measured in 96-well microtiter plates according to the Clinical and Laboratory Standards Institute (CLSI). The activated strains were treated with Mueller Hinton Agar (MHA) solid medium. Single colonies were picked and expanded to the logarithmic growth phase, and the solution was diluted to 2 × 10^6 CFU/mL using the McFarland turbidity standard. The MIC was determined with the two-fold dilution method. Briefly, 50 μL of Mueller Hinton (MH) medium was added to a 96-well plate in advance. Then, 50 μL of AMP solution was added to the first well, and 50 μL was pipetted into the next well after mixing using a row gun, while 50 μL was discarded from the last well. Final concentrations of Brevinin-1BW were 100, 50, 25, 12.5, 6.25, and 3.125 μg/mL. A 50 μL volume of the diluted bacterial solution was added, and the final concentration of the bacterial solution was 1 × 10^6 CFU/mL. This was then placed into a 37 °C incubator for 18 h until the next day to observe the degree of turbidity of the 96-well plate and measure the absorbance of the wells at 600 nm with a multifunctional microplate reader (SpectraMax iD5, Molecular Devices, Sunnyvale, CA, USA). The absence of turbidity and the measured concentration of absorbance being less than the opposing group was taken as the MIC. The positive control used ampicillin at the same final concentration as Brevinin-1BW, the negative control used 50 μL of MH medium mixed with 50 μL of 2 × 10^6 CFU/mL bacterial solution, and the blank contained only 100 μL of MH medium. Three replicate wells were set up for each experiment, and each experiment was repeated three times. The MIC and all concentrations above the MIC of bacterial solution coated on MHA solid medium were placed into 37 °C incubator incubation for 18 h. The lowest concentration resulting in no colony growth was taken as the minimum bactericidal concentration (MBC)."}, "[2]": {"tested_on": "K. pneumoniae (ATCC700603)", "experiment": "microbe, parasite or virus in culture", "assay_type": "cell-based, Klebsiella pneumoniae", "details": "ATCC700603, 18 h", "description": "as §1"}, "[3]": {"tested_on": "S. haemolyticus (CI 1607BLD590)", "experiment": "microbe, parasite or virus in culture", "assay_type": "cell-based, Staphylococcus haemolyticus", "details": "CI 1607BLD590, 18 h", "description": "as §1"}, "TNF-α": {"tested_on": "TNF-α", "experiment": "Cytokine release in LPS-treated RAW264.7 cells, ELISA", "assay_type": "cell-based, mouse", "description": "(§2) RAW 264.7 mouse macrophages were cultured in DMEM medium (Gibco, New York, NY, USA). containing 10% FBS (TransGen Biotech, Beijing, China) and 1% penicillin-streptomycin (Biosharp, Guangzhou, China) and were seeded into 6-well plates at a cell density of 10^5 cells/mL. After cell adhesion, 1 μg/mL LPS (Solarbio, Beijing, China) and different concentrations of Brevinin-1BW (0, 1, 2, 3, and 4 μg/mL) were incubated for 24 h. Culture supernatants were collected, and the contents of TNFα, IL-6, and IL-1β were determined with enzyme-linked immunosorbent assay (BOSTER, Wuhan, China). All cells were washed twice with precooled PBS, total cellular RNA was extracted using the RNAsimple Total RNA Extraction kit (TIANGEN, Beijing, China), and total RNA concentration and purity were determined using a Thermo Fisher NanoDropOne nucleic acid protein spectrophotometer. HiScript II 1st Strand cDNA Synthesis Kit (Vazyme, Nanjing, China) synthesized cDNA, and we performed real-time PCR using Hieff® qPCR SYBR Green Master Mix (No Rox) (YEASEN, Shanghai, China). The primer sequences for Beta-actin (β-Actin), interleukins (IL-6, IL-1β), tumor necrosis factor (TNF-α), and nitric oxide synthase (iNOS) are shown in Table 6. Cells incubated without peptide and/or LPS were used as negative control. All experiments were repeated three times."}, "IL-1β": {"tested_on": "IL-1β", "experiment": "Cytokine release in LPS-treated RAW264.7 cells, ELISA", "assay_type": "cell-based, mouse", "details": "4 μg/mL peptide, 1 μg/mL LPS, RAW264.7, 24 h, ELISA of supernatant", "description": "as §2"}, "IL-6": {"tested_on": "IL-6", "experiment": "Cytokine release in LPS-treated RAW264.7 cells, ELISA", "assay_type": "cell-based, mouse", "description": "as §2"}, "E. coli (MDR ATCC35218)": {"tested_on": "E. coli (MDR ATCC35218)", "experiment": "microbe, parasite or virus in culture", "assay_type": "cell-based, Escherichia coli", "details": "ATCC35218, 18 h", "description": "as §1"}}, "note": "Positions of bridges follow the written chain, without caps; N, C: chain ends. Residues, ends and D or L forms follow the SMILES beside them.", "data": [{"smiles": "CC[C@H](C)[C@@H]1NC(=O)[C@H](CCCCN)NC(=O)[C@@H](NC(=O)[C@H](Cc2ccccc2)NC(=O)[C@@H](NC(=O)[C@@H](NC(=O)[C@@H]2CCCN2C(=O)[C@H](CC(C)C)NC(=O)[C@H](Cc2ccccc2)NC(=O)[C@H](CO)NC(=O)[C@H](C)NC(=O)[C@H](C)NC(=O)[C@H](CC(C)C)NC(=O)CNC(=O)[C@H](C)NC(=O)[C@H](CC(C)C)NC(=O)[C@H](CC(C)C)NC(=O)[C@@H]2CCCN2C(=O)[C@H](CC(C)C)NC(=O)[C@@H](N)Cc2ccccc2)[C@@H](C)O)[C@@H](C)CC)CSSC[C@@H](C(=O)O)NC(=O)[C@H](CCCCN)NC(=O)[C@H](CCCNC(=N)N)NC(=O)[C@H](CO)NC1=O", "note": "[Brevinin-1BW] (H-FLPLLAGLAASFLPTIFCKISRKC-OH; disulfide 18-24)", "values": [{"measurement": "CC50", "setting": "RAW264.7", "value": "32.33 ± 0.47", "unit": "µg/mL"}, {"measurement": "clearance rate of the mature biofilm", "setting": "S. aureus mature biofilm; 0.5 × MIC", "value": 50.02, "unit": "%"}, {"measurement": "clearance rate of the mature biofilm", "setting": "S. aureus mature biofilm; 2 × MIC", "value": 60.99, "unit": "%"}, {"measurement": "MBC", "setting": "[1]", "value": ">100", "unit": "µg/mL"}, {"measurement": "MIC", "setting": "[1]", "value": 100, "unit": "µg/mL"}, {"measurement": "MBC", "setting": "[2]", "value": ">100", "unit": "µg/mL"}, {"measurement": "MIC", "setting": "[2]", "value": ">100", "unit": "µg/mL"}, {"measurement": "MBC", "setting": "[3]", "value": 25, "unit": "µg/mL"}, {"measurement": "MIC", "setting": "[3]", "value": 12.5, "unit": "µg/mL"}, {"measurement": "decrease of TNF-α release", "setting": "TNF-α", "value": 87.31, "unit": "%"}, {"measurement": "decrease of IL-1β release", "setting": "IL-1β", "value": 91.46, "unit": "%"}, {"measurement": "decrease of IL-6 release", "setting": "IL-6", "value": 77.82, "unit": "%"}, {"measurement": "MBC", "setting": "E. coli (MDR ATCC35218)", "value": ">100", "unit": "µg/mL"}, {"measurement": "MIC", "setting": "E. coli (MDR ATCC35218)", "value": ">100", "unit": "µg/mL"}]}]}
